Calls of active or inactive are those of the source.
Legend:
Vero = experiment: Vero cell toxicity, dose response, cytotoxicity control, plate reader, cherry-pick samples (AID 687020); assay type: functional, cell-based; conditions: Chlorocebus sabaeus
[1] = NIH-3T3 fibroblast cytotoxicity, dose response, cytotoxicity control, cell-based, fluorescence, Alamar Blue, secondary assay (AID 2327); assay type: functional;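 also: NIH-3T3 mouse fibroblasts cultured with fluconazole at 8 µg/mL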
[2] = target: Eukaryotic translation initiation factor 4E (Mus musculus, UniProt P63073); experiment: eIF4E–eIF4G protein interaction inhibitors, dose response, biochemical, TR-FRET (AID 855); assay type: functional;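 also: potency for disrupting eIF4E binding to eIF4GI seen as loss of FRET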
[3] = cytotoxicity toward NIH3T3 fibroblasts, dose response, counter-screen, cell-based, ATP luminescence, mouse fibroblasts (AID 2010); assay type: functional;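 also: cells exposed to compound for about 90 hours before reading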
INS1 = experiment: beta cell apoptosis inhibitors, cytokine rescue, dose response, luminescence, retest (AID 449756); assay type: functional, cell-based; conditions: Rattus norvegicus;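 also: cell death triggered by IL-1 beta plus TNF-alpha plus IFN-gamma mixture; protective hits raise ATP signal compared with cytokine alone wells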
[4] = inhibitors of intracellular T. cruzi replication, confirmation, NIH3T3 host cells, beta-gal luminescence (AID 2044); assay type: functional, cell-based;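 also: intracellular parasites grown in NIH/3T3 mouse fibroblasts as host cells; luminescent beta-galactosidase reporter signal from transgenic T. cruzi replicating inside host cells; inhibitors lower the luminescence signal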
[5] = C. albicans growth with fluconazole, confirmation, fluorescence, retest (AID 2467); assay type: functional, cell-based
[6] = target: Induced myeloid leukemia cell differentiation protein Mcl-1 (Homo sapiens, UniProt Q07820); assay type: functional
Chain of Induced myeloid leukemia cell differentiation protein Mcl-1 (Q07820 whole entry): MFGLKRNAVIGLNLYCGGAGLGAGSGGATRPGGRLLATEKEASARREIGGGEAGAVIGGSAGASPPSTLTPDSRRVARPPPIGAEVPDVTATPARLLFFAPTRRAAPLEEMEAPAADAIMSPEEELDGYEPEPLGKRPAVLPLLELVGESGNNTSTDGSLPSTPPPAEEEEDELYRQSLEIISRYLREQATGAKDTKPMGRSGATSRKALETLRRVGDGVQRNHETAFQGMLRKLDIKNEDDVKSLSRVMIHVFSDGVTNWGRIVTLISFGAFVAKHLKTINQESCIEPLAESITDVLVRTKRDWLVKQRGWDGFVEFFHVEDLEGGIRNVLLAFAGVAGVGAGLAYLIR

Paired box protein Pax-8 = Paired box protein Pax-8 (Homo sapiens, UniProt Q06710); experiment: inhibitors of PAX8-driven TPO luciferase reporter, dose response, RMG-I cells, cherry-pick (AID 687027); assay type: functional, cell-based;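 also: luciferase reporter driven by Pax8 target thyroperoxidase promoter measured by SteadyGlo luminescence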
Chain of Paired box protein Pax-8 (Q06710 whole entry): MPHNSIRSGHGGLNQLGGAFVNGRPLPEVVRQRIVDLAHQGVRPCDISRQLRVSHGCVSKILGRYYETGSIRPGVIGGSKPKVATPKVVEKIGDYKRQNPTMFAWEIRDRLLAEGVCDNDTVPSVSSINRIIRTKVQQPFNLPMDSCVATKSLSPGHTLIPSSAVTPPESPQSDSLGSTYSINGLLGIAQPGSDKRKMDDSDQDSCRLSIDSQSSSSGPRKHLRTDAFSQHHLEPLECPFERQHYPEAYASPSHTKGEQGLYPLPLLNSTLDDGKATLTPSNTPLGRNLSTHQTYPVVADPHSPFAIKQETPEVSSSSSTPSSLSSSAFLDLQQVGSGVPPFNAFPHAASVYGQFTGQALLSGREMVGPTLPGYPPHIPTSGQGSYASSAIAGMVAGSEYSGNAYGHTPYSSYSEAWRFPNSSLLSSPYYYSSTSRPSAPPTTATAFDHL

[7] = target: Histone-lysine N-methyltransferase NSD2 (Homo sapiens, UniProt O96028); assay type: biochemical
Chain of Histone-lysine N-methyltransferase NSD2 (O96028 whole entry): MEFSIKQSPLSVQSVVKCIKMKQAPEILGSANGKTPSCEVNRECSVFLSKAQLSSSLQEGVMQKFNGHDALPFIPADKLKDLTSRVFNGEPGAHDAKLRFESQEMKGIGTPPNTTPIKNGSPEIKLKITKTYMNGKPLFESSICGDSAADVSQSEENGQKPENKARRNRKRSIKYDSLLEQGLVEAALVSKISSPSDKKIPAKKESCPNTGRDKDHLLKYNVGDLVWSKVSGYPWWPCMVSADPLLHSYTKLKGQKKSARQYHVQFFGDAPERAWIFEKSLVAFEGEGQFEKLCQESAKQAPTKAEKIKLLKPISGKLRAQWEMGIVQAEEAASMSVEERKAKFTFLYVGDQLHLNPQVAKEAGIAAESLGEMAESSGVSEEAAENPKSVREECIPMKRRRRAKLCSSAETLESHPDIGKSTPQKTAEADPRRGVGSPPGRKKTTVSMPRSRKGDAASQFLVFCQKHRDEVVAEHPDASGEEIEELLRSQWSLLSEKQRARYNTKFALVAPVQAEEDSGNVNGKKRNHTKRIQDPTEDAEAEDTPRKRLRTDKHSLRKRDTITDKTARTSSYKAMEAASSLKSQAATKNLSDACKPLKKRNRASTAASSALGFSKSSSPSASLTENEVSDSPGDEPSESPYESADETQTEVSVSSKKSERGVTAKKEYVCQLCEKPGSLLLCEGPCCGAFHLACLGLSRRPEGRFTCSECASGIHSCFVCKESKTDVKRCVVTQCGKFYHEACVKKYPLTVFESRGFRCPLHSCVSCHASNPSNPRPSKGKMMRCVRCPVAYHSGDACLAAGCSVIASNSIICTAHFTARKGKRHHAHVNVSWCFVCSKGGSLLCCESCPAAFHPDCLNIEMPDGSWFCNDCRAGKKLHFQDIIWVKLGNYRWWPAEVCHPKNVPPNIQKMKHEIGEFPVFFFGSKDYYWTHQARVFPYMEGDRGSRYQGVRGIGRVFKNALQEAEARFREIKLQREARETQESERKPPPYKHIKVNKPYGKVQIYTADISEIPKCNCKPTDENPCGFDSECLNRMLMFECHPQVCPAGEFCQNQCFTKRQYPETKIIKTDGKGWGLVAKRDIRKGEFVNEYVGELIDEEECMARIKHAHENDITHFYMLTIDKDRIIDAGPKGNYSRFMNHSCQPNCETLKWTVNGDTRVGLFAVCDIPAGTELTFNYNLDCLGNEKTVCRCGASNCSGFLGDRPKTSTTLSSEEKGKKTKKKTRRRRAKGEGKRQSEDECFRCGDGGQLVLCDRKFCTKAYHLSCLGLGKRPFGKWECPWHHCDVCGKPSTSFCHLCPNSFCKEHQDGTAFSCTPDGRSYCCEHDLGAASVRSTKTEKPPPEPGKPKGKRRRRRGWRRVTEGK

[8] = miR-122 activators in hepatoma reporter cells, dose response, cell-based, Huh7 psiCHECK-miR122, Renilla luciferase, cherry-picked (AID 651956); assay type: functional;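 also: huh7 hepatoma cells stably carrying a psiCHECK-2 miR-122 sensor plasmid; renilla luciferase signal reporting endogenous miR-122 activity after 48 h compound exposure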
[9] = Luminescence Cell-Based Dose Retest to Confirm Inhibitors of Cancer Stem Cells. [Related pubchem assays (depositor defined):AID2717, AID2721]; assay type: functional; conditions: Homo sapiens
Fatty acid synthase [10] = target: T1, Fatty acid synthase (Homo sapiens, UniProt P49327); experiment: FAS thioesterase domain inhibitors, dose response, biochemical, endpoint fluorescence intensity, uHTS hits (AID 624327); assay type: functional;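 also: fluorescence from hydrolysis of an O-methyl fluorescein acyl ester substrate by the enzyme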
T1 sequence (P49327 whole entry, the tested form may be a part): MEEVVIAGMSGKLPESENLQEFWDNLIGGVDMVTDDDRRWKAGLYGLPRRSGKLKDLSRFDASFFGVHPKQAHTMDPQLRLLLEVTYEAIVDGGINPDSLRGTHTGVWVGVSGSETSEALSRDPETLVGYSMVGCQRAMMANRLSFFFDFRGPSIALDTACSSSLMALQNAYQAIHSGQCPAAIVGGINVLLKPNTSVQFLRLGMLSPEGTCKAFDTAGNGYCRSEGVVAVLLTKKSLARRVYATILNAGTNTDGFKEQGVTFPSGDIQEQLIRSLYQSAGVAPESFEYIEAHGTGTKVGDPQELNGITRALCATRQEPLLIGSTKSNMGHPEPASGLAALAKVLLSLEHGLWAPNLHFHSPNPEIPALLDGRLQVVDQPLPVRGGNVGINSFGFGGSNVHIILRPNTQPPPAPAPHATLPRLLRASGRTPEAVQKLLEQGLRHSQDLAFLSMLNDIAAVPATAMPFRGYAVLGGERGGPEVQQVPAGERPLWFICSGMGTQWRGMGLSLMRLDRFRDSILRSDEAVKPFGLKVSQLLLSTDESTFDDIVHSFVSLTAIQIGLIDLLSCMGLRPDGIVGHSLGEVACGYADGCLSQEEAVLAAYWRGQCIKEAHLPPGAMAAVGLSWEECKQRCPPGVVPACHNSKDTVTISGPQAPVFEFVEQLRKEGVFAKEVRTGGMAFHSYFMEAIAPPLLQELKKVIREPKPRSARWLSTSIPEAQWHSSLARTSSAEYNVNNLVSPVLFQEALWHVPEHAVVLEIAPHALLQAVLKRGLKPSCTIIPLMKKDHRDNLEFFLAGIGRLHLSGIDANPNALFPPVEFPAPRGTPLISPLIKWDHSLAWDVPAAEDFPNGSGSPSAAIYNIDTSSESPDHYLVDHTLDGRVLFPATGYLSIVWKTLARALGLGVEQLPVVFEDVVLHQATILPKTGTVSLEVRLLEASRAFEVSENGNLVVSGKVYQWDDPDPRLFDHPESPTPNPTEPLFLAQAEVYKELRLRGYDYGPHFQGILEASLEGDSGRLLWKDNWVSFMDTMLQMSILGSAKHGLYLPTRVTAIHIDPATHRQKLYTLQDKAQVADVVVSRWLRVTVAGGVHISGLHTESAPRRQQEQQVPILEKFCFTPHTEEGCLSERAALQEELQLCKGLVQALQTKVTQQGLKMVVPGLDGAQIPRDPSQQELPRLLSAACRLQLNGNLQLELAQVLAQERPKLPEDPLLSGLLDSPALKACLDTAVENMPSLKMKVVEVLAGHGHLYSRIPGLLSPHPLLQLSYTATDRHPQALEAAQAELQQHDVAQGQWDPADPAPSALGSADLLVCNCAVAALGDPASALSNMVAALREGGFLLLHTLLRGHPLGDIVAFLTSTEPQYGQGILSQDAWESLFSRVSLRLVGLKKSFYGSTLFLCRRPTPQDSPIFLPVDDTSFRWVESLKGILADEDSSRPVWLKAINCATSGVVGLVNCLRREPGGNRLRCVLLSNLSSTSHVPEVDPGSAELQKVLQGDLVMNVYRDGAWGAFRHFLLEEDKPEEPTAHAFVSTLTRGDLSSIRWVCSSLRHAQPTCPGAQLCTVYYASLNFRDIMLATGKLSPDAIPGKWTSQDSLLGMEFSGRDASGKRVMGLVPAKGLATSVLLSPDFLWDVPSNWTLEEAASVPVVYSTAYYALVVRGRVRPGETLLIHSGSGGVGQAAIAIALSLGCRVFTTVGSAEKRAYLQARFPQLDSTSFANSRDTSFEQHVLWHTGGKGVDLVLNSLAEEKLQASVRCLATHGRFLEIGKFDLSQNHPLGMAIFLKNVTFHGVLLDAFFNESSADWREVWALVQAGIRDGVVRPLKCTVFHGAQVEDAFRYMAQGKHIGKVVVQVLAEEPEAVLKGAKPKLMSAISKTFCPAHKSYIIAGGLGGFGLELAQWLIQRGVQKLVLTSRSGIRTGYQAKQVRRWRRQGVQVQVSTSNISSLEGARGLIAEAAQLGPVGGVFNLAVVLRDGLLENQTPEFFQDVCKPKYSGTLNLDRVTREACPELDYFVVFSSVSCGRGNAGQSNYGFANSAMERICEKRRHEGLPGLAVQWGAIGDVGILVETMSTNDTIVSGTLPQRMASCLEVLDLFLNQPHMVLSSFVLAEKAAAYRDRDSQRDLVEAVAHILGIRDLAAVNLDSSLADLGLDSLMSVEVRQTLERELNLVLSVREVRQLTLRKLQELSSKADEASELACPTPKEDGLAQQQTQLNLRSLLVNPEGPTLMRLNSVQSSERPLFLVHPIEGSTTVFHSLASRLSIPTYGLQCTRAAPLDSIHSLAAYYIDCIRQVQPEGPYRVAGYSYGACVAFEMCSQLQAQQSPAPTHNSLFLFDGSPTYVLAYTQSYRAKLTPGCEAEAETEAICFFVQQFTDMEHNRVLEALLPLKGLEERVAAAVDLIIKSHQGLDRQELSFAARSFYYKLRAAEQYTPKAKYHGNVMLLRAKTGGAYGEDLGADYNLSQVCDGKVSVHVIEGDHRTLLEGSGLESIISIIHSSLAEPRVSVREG

Fatty acid synthase [11] = target: T1, Fatty acid synthase; experiment: FAS thioesterase domain inhibitors, dose response, biochemical, kinetic fluorescence intensity (AID 624326); assay type: functional;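 also: rate of fluorescence rise from hydrolysis of a fluorogenic O-methyl fluorescein ester substrate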
[12] = HEK293T cytotoxicity, dose response, cytotoxicity control for miR-122 modulator project, cell-based, activator set, cherry-pick (AID 720690); assay type: functional;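 also: HEK293T human cells scored for general mammalian cytotoxicity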
[13] = HEK293T cytotoxicity, dose response, cytotoxicity control for miR-122 modulator project, cell-based, inhibitor set, cherry-pick, set 2 (AID 720697); assay type: functional
[14] = ADAM10 inhibitors, peptide cleavage, dose response, biochemical, QFRET (AID 743254);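 also: ADAM10 enzyme with the DM2 quenched FRET peptide as substrate; EDANS fluorescence gain as the protease cuts the substrate; inhibitor potency against ADAM10 proteolytic activity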
[15] = target: Disintegrin and metalloproteinase domain-containing protein 17 (Homo sapiens, UniProt P78536); experiment: ADAM17 protease inhibitors, dose response, counter-screen for ADAM10 exosite inhibitor project, biochemical, quenched FRET substrate (AID 743253)
Beta-lactamase [16] = target: T2, Beta-lactamase (Pseudomonas aeruginosa, UniProt Q79MP6); experiment: IMP-1 metallo-beta-lactamase inhibitors, dose response, selectivity assay for VIM-2 inhibitor project, biochemical, epi-absorbance (AID 1920)
T2 sequence (Q79MP6 whole entry): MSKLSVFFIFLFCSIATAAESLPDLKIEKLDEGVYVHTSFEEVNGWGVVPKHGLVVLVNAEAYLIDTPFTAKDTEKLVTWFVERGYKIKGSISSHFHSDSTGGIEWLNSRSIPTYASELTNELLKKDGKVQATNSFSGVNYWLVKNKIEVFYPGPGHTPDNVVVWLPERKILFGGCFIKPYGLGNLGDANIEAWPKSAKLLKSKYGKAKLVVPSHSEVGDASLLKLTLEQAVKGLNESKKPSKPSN

Beta-lactamase [17] = target: T2, Beta-lactamase; experiment: […] counterscreen for selective VIM-2 inhibitors: dose response biochemical high throughput screening assay to identify inhibitors of IMP-1 metallo-beta-lactamase.
Beta-lactamase [18] = target: Beta-lactamase (Salmonella choleraesuis (strain SC-B67), UniProt Q5J463); experiment: Epi-absorbance-based counterscreen for selective VIM-2 inhibitors: dose response biochemical high throughput screening assay to identify inhibitors of TEM-1 serine-beta-lactamase.
cells = assay type: functional, cell-based
[19] = target: T3, Nuclear receptor subfamily 0 group B member 1 (Homo sapiens, UniProt P51843); assay type: functional, cell-based;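 also: HEK293T cells transfected with SF-1 and DAX-1 plus StAR promoter luciferase reporter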
T3 sequence (P51843 whole entry): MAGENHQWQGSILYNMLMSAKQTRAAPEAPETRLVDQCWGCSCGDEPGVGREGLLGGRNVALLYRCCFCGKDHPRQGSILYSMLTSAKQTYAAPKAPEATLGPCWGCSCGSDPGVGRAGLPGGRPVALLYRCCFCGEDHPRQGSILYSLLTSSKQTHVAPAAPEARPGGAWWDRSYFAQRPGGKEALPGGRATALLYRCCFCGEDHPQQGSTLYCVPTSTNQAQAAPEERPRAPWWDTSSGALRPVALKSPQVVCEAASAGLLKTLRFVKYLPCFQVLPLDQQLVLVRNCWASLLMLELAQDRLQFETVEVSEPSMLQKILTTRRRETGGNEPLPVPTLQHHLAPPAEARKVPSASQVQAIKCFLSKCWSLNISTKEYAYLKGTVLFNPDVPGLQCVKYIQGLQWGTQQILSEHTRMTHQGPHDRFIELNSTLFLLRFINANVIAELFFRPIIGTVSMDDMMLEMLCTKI

[20] = target: T4, Oxysterols receptor LXR-beta (Homo sapiens, UniProt P55055); assay type: functional, cell-based;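 also: agonist activity at LXR measured by a cell-based luminescence readout across a dose range, run as a counterscreen for daf-12 agonists; HEK293 cells with Gal4-LXR fusion and GAL4-driven luciferase reporter; potency for activation of Gal4-LXR reporter so compounds are agonists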
T4 sequence (P55055 whole entry): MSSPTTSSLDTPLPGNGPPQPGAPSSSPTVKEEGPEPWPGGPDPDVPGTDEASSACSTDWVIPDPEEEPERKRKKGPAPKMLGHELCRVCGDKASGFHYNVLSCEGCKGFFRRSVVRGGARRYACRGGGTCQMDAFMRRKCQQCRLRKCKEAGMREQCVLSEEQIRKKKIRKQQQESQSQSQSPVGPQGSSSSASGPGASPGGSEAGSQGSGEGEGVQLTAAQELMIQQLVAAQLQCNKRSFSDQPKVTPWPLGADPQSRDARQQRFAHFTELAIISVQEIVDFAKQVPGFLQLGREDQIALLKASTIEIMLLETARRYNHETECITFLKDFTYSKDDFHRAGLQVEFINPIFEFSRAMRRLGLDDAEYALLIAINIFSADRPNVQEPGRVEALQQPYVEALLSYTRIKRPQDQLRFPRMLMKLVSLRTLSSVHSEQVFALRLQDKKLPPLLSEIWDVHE

Compound: CC(C)Oc1ccccc1OC1(C)CCN(Cc2ccc(OC(F)(F)F)cc2)C1 (configuration not stated)
- AC50 (Vero): 27.4 µM (active)

Compound: CN1c2ccccc2N(C)C1(C)c1ccccc1
- EC50 [1]: > 150 µM (inactive)
- IC50 [2]: > 64 µM (inactive)
- EC50 [3]: > 60 µM (not active)
- AC50 (INS1): 0.283 µM (active)
- EC50 [4]: 0.278 µM (active)
- EC50 [5]: > 38 µM (not active)
- IC50 [6]: 4.95 µM (active)
- AC50 (Paired box protein Pax-8): 9.4 µM (active)
- AC50 [7]: > 20 µM (inactive)

Compound: CN1C(=O)c2cc(NC(=O)Nc3cccc(Cl)c3)ccc2OC[C@@H]2O[C@H](CC(=O)NCCc3ccncc3)CC[C@H]21
- AC50 [8]: 16.1 µM (active)

Compound: CN(C)CCNc1nc2sc3c(c2c(=O)n1CCc1ccccc1)CCCCC3
- AC50 [9]: 6.6 µM (active)
- IC50 (Fatty acid synthase [10]): 18.8 µM (active)
- EC50 [3]: 30.9 µM (active)
- IC50 (Fatty acid synthase [11]): 19.3 µM (active)
- EC50 [4]: 0.125 µM (active)
- AC50 [12]: 14.7 µM (active)
- AC50 [13]: 7.83 µM (active)

Compound: CCCCCCCCNS(=O)(=O)/C=C/c1ccccc1CNC(=O)OC(C)(C)C
- IC50 [14]: > 7.73 µM (active)
- IC50 [15]: > 69.6 µM (inactive)

Compound: O=c1c2ccccc2cnn1Cc1nnc(S)n1C1CC2CCC1C2 (configuration not stated)
- IC50 (Beta-lactamase [16]): > 59.6 µM (inactive)
- IC50 (Beta-lactamase [17]): > 59.6 µM (inactive)
- IC50 (Beta-lactamase [18]): > 59.6 µM (inactive)

Compound: O=C(c1ccc2nc(Cc3ccccc3F)oc2c1)N1CC[C@H](O)C1
- IC50 (cells): > 67.6 µM (inactive)
- IC50 [19]: > 67.6 µM (inactive)

Compound: c1ccc(CSc2ccc(-c3cccs3)nn2)cc1
- EC50 [20]: > 67.5 µM (inactive)

Compound: COc1cccc(-c2nc3ccccc3s2)c1
- EC50 [20]: > 67.5 µM (inactive)

Reference: ChEMBL document CHEMBL1201862, “PubChem BioAssay data set” (2004)
